The values that follow come from US20220267352A1, “RAPAMYCIN ANALOGS AND USES THEREOF” (Anakuria Therapeutics, Inc., priority 2021, published 2022).

Holding throughout (format): cell-based
In experiment [1] the test system is p-Akt 1/2/3 (Ser473) in MCF-7 cells. Briefly: AlphaLISA Ultra pAKT assay. The note with it: Homo sapiens, 1.5 h; MCF7 cells, 90 min. The method in brief: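 MCF-7 cells (16,000˜20,000 per well in 36 μL medium) were seeded in Corning 3701 plates for 20˜24 hour, refreshed with new medium for 90 minutes, then given 12 μL of 4× compound (0.5% final DMSO). Cells were lysed with 2× lysis buffer, and lysate was analyzed by AlphaLISA Ultra pAKT using acceptor and donor beads, read on an EnSpire reader.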

The subject of the next experiment is mTORC1 over mTORC2. Briefly: mTORC1 over mTORC2 selectivity by comparing pS6K1 and pAKT IC50. The note with it: by comparing pS6K1 and pAKT IC50, 90 min. The gist of the method: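 MCF-7 cells were treated with compounds (0.5% final DMSO) for 90 minutes in one protocol and 2 hours in the other, then lysed. Phospho-signal in lysates was read by bead-based donor/acceptor proximity assay. pS6K1 and pAKT IC50 values were compared to judge mTORC1 over mTORC2 selectivity, at 90 min and at 24 hrs.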

Experiment [2] relates to p-p70 S6 Kinase (Thr389) in MCF-7 cells. In words: AlphaLISA Ultra pS6K1 assay. The note with it: Homo sapiens, 1.5 h; MCF7 cells, 90 min. The method in brief: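 Phospho-S6K1 (Thr389) quantified by AlphaLISA Ultra read-out (2 h acceptor, then 2 h donor beads) in lysates of MCF-7 cells. Cells were plated 20–24 h before, refed 2 h, exposed to compounds for 90 min at 0.5% final DMSO, and lysates stored at −80 °C.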
In general terms: Alpha assays give light when donor and acceptor beads are brought close together.

For the compound `CO[C@@H]1C[C@H](C[C@@H](C)[C@@H]2CC(=O)[C@H](C)/C=C(\C)[C@@H](O)[C@@H](OC)C(=O)[C@H](C)C[C@H](C)/C=C/C=C/C=C(\C)C(OCCOC3COC3)C[C@@H]3CC[C@@H](C)[C@@](O)(O3)C(=O)C(=O)N3CCCC[C@H]3C(=O)O2)CC[C@H]1OC(=O)NCCN1CCOCC1` (stereo partly drawn) [I-19, [(42S,44R,46R)-4-[(2R)-2-[(27E,29E,31E,32E,38R,39S,40R,41R,43S,45S,48S,50R,51R,61R)-50,61-dihydroxy-51-methoxy-38,39,40,41,52,53-hexamethyl-47-[2-(oxetan-3-yloxy)ethoxy]-54,55,56,57,58-pentaoxo-75,76-dioxa-64-azatricyclohexatriaconta-27,29,31(52),32(53)-tetraen-48-yl]propyl]-46-methoxy-44-cyclohexyl] N-(2-morpholinoethyl)carbamate], the half-inhibitory concentration (IC50) (usually the concentration needed to halve the response being measured) in experiment [1] is no less than 1000 nM; in experiment [2] it was less than 1 nM. Also, in the experiment on mTORC1 over mTORC2, the “mTORC1 selective @ 90 min” value was “Yes”.
Consider `COCCO[C@@H]1CC[C@@H](C[C@@H](C)[C@@H]2CC(=O)[C@H](C)/C=C(\C)[C@@H](OC)[C@@H](OC)C(=O)[C@H](C)C[C@H](C)/C=C/C=C/C=C(\C)C(OCCOC3COC3)C[C@@H]3CC[C@@H](C)[C@@](O)(O3)C(=O)C(=O)N3CCCC[C@H]3C(=O)O2)C[C@H]1OC` (stereo partly drawn) [I-94, (25E,27E,29E,30E,36R,37S,38R,39R,41S,43S,46S,48R,49R,58R)-58-hydroxy-48,49-dimethoxy-46-[(1R)-2-[(1S,3R,4R)-3-methoxy-4-(2-methoxyethoxy)cyclohexyl]-1-methyl-ethyl]-36,37,38,39,50,51-hexamethyl-45-[2-(oxetan-3-yloxy)ethoxy]-67,68-dioxa-59-azatricyclohexatriaconta-25,27,29(50),30(51)-tetraene-52,53,54,55,56-pentone], for which the half-inhibitory concentration (IC50) in experiment [1] was no less than 1000 nM; in experiment [2], 10 to 100 nM. Moreover, the “mTORC1 selective @ 90 min” value with mTORC1 over mTORC2 is “Yes”.
The corresponding values for `CO[C@@H]1C[C@H](C[C@@H](C)[C@@H]2CC(=O)[C@H](C)/C=C(\C)[C@@H](O)[C@@H](OC)C(=O)[C@H](C)C[C@H](C)/C=C/C=C/C=C(\C)C(OCCOC3COC3)C[C@@H]3CC[C@@H](C)[C@@](O)(O3)C(=O)C(=O)N3CCCC[C@H]3C(=O)O2)CC[C@H]1OCCCN1CC2(COC2)C1` (stereo partly drawn) [I-91, (27E,29E,31E,32E,39R,40S,41R,42R,44S,46S,49S,51R,52R,62R)-51,62-dihydroxy-52-methoxy-49-[(1R)-2-[(1S,3R,4R)-3-methoxy-4-[3-(2-oxa-6-azaspiro[3.3]heptan-6-yl)propoxy]cyclohexyl]-1-methyl-ethyl]-39,40,41,42,53,54-hexamethyl-48-[2-(oxetan-3-yloxy)ethoxy]-74,75-dioxa-63-azatricyclohexatriaconta-27,29,31(53),32(54)-tetraene-55,56,57,58,59-pentone] are no less than 1000 nM, 1 to 10 nM and “Yes”.
For `CNCCOCCOC1C[C@@H]2CC[C@@H](C)[C@@](O)(O2)C(=O)C(=O)N2CCCC[C@H]2C(=O)O[C@H]([C@H](C)C[C@@H]2CC[C@@H](OC)[C@H](OC)C2)CC(=O)[C@H](C)/C=C(\C)[C@@H](OC)[C@@H](OC)C(=O)[C@H](C)C[C@H](C)/C=C/C=C/C=C/1C` (stereo partly drawn) [I-90, (24E,26E,28E,29E,35R,36S,37R,38R,40S,42S,45S,46R,47R,56R)-45-[(1R)-2-[(1S,3R,4R)-3,4-dimethoxycyclohexyl]-1-methyl-ethyl]-56-hydroxy-46,47-dimethoxy-35,36,37,38,48,49-hexamethyl-44-[2-[2-(methylamino)ethoxy]ethoxy]-65,66-dioxa-58-azatricyclohexatriaconta-24,26,28(48),29(49)-tetraene-50,51,52,53,54-pentone], in that order: no less than 1000 nM, 10 to 100 nM and “Yes”.
Consider `CO[C@@H]1C[C@H](C[C@@H](C)[C@@H]2CC(=O)[C@H](C)/C=C(\C)[C@@H](O)[C@@H](OC)C(=O)[C@H](C)C[C@H](C)/C=C/C=C/C=C(\C)[C@H](OCCOC3COC3)C[C@@H]3CC[C@@H](C)[C@@](O)(O3)C(=O)C(=O)N3CCCC[C@H]3C(=O)O2)CC[C@H]1OP(C)(C)=O` [I-77, (1R,9S,12S,15R,16E,18R,19R,21R,23S,24E,26E,28E,30R,32S,35R)-12-[(1R)-2-[(1S,3R,4R)-4-dimethylphosphoryloxy-3-methoxy-cyclohexyl]-1-methyl-ethyl]-1,18-dihydroxy-19-methoxy-15,17,21,23,29,35-hexamethyl-30-[2-(oxetan-3-yloxy)ethoxy]-11,36-dioxa-4-azatricyclo[30.3.1.0^4,9]hexatriaconta-16,24,26,28-tetraene-2,3,10,14,20-pentone], for which the 50% inhibitory concentration (IC50) in experiment [1] is no less than 1000 nM; in experiment [2], 10 to 100 nM. In the experiment on mTORC1 over mTORC2, the “mTORC1 selective @ 90 min” value is reported as “Yes”.
In the case of `CO[C@@H]1C[C@H](C[C@@H](C)[C@@H]2CC(=O)[C@H](C)/C=C(\C)[C@@H](O)[C@@H](OC)C(=O)[C@H](C)C[C@H](C)/C=C/C=C/C=C(\C)[C@@H](OCC3COCCO3)C[C@@H]3CC[C@@H](C)[C@@](O)(O3)C(=O)C(=O)N3CCCC[C@H]3C(=O)O2)CC[C@H]1OCCCO` (stereo partly drawn) [I-93, (24E,26E,28E,29E,35R,36S,37R,38R,40S,42S,44S,45S,47R,48R,57R)-44-(1,4-dioxan-2-ylmethoxy)-47,57-dihydroxy-45-[(1R)-2-[(1S,3R,4R)-4-(3-hydroxypropoxy)-3-methoxy-cyclohexyl]-1-methyl-ethyl]-48-methoxy-35,36,37,38,49,50-hexamethyl-69,70-dioxa-58-azatricyclohexatriaconta-24,26,28(49),29(50)-tetraene-51,52,53,54,55-pentone], the figures for the IC50 in experiment [1] and in experiment [2] were no less than 1000 nM and 1 to 10 nM, respectively. Moreover, the “mTORC1 selective @ 90 min” value in the experiment on mTORC1 over mTORC2 was “Yes”.
The corresponding values for `CO[C@@H]1/C(C)=C/[C@@H](C)C(=O)C[C@@H]([C@H](C)C[C@@H]2CC[C@@H](O)[C@H](OC)C2)OC(=O)[C@@H]2CCCCN2C(=O)C(=O)[C@]2(O)O[C@@H](CC[C@H]2C)CC(OCCOC2COC2)/C(C)=C/C=C/C=C/[C@@H](C)C[C@@H](C)C(=O)[C@@H]1OC` (stereo partly drawn) [I-11, (3S,6R,7E,9R,10R,12R,14S,15E,17E,19E,23S,26R,27R,34aS)-27-hydroxy-3-((R)-1-((1S,3R,4R)-4-hydroxy-3-methoxycyclohexyl)propan-2-yl)-9,10-dimethoxy-6,8,12,14,20,26-hexamethyl-21-(2-(oxetan-3-yloxy)ethoxy)-9,10,12,13,14,21,22,23,24,25,26,27,32,33,34,34a-hexadecahydro-3H-23,27-epoxypyrido[2,1-c][1]oxa[4]azacyclohentriacontine-1,5,11,28,29(4H,6H,31H)-pentaone] are no less than 1000 nM, 10 to 100 nM and “Yes”.
For `COCCO[C@@H]1CC[C@@H](C[C@@H](C)[C@@H]2CC(=O)[C@H](C)/C=C(\C)[C@@H](O)[C@@H](OC)C(=O)[C@H](C)C[C@H](C)/C=C/C=C/C=C(\C)C(OC[C@H]3COCCO3)C[C@@H]3CC[C@@H](C)[C@@](O)(O3)C(=O)C(=O)N3CCCC[C@H]3C(=O)O2)C[C@H]1OC` (stereo partly drawn) [I-79, (1R,9S,12S,15R,16E,18R,19R,21R,23S,24E,26E,28E,32S,35R)-30-[[(2R)-1,4-dioxan-2-yl]methoxy]-1,18-dihydroxy-19-methoxy-12-[(1R)-2-[(1S,3R,4R)-3-methoxy-4-(2-methoxyethoxy)cyclohexyl]-1-methyl-ethyl]-15,17,21,23,29,35-hexamethyl-11,36-dioxa-4-azatricyclo[30.3.1.0^4,9]hexatriaconta-16,24,26,28-tetraene-2,3,10,14,20-pentone], in that order: no less than 1000 nM, 1 to 10 nM and “Yes”.
The corresponding values for `COCCOCCOC1C[C@@H]2CC[C@@H](C)[C@@](O)(O2)C(=O)C(=O)N2CCCC[C@H]2C(=O)O[C@H]([C@H](C)C[C@@H]2CCC(OC3COC3)[C@H](OC)C2)CC(=O)[C@H](C)/C=C(\C)[C@@H](O)[C@@H](OC)C(=O)[C@H](C)C[C@H](C)/C=C/C=C/C=C/1C` (stereo partly drawn) [I-7, (24E,26E,28E,29E,35R,36S,37R,38R,40S,42S,45S,47R,48R,57R)-47,57-dihydroxy-48-methoxy-44-[2-(2-methoxyethoxy)ethoxy]-45-[(1R)-2-[(1S,3R)-3-methoxy-4-(oxetan-3-yloxy)cyclohexyl]-1-methyl-ethyl]-35,36,37,38,49,50-hexamethyl-67,68-dioxa-58-azatricyclohexatriaconta-24,26,28(49),29(50)-tetraene-51,52,53,54,55-pentone] are no less than 1000 nM, 1 to 10 nM and “Yes”.
Consider `CO[C@@H]1C[C@H](C[C@@H](C)[C@@H]2CC(=O)[C@H](C)/C=C(\C)[C@@H](O)[C@@H](OC)C(=O)[C@H](C)C[C@H](C)/C=C/C=C/C=C(\C)C(OCC3COCCO3)C[C@@H]3CC[C@@H](C)[C@@](O)(O3)C(=O)C(=O)N3CCCC[C@H]3C(=O)O2)CC[C@H]1OC(F)F` (stereo partly drawn) [I-6, (24E,26E,28E,29E,32R,33S,34R,35R,37S,39S,42S,44R,45R,55R)-42-[(1R)-2-[(1S,3R,4R)-4-(difluoromethoxy)-3-methoxy-cyclohexyl]-1-methyl-ethyl]-41-(1,4-dioxan-2-ylmethoxy)-44,55-dihydroxy-45-methoxy-32,33,34,35,46,47-hexamethyl-66,67-dioxa-56-azatricyclohexatriaconta-24,26,28(46),29(47)-tetraene-48,49,50,51,52-pentone], for which the IC50 in experiment [1] was no less than 1000 nM; in experiment [2] it was 10 to 100 nM. In the experiment with mTORC1 over mTORC2, the “mTORC1 selective @ 90 min” value is reported as “Yes”.
